Test systems include CAKI-1 renal; CCRF-CEM leukemia; EKVX NSCLC; K-562 leukemia; NCI-H460 lung; OVCAR-8 ovarian; RPMI-8226 leukemia; RXF 393 renal; SF-268 CNS; SK-MEL-28 melanoma.
Holding throughout (test): inhibition of tumour cell growth, NCI panel, 48 h

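96-well plates; 48 h exposure; 5 concentrations. Endpoints by linear interpolation between flanking doses. Not reached: highest tested concentration assigned. Here, GI50 denotes the concentration required for 50% inhibition of growth. At the TGI there is no net growth.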

With `COC(=O)c1s/c(=N\C(=S)N(C)C)n(-c2ccc(Cl)cc2)c1C(=O)OC`, the TGI with CAKI-1 renal, with CCRF-CEM leukemia, with EKVX NSCLC, with K-562 leukemia, with NCI-H460 lung and in the assay on OVCAR-8 ovarian was more than 100 µM throughout. The TGI with RPMI-8226 leukemia, with RXF 393 renal, in the assay with SF-268 CNS and with SK-MEL-28 melanoma was more than 100 µM each time.

As for `COC(=O)c1ccc(-c2c(C#N)[n+](=O)c3cc(Cl)c(Cl)cc3n2[O-])cc1`, the GI50 in the assay on CAKI-1 renal is 18.9 µM; with CCRF-CEM leukemia, 2850 nM; in the assay with EKVX NSCLC it was 21.7 µM; with K-562 leukemia, 5540 nM; in the assay on NCI-H460 lung it was 18600 nM; with OVCAR-8 ovarian, 24.3 µM. The GI50 is 29800 nM in the assay on RPMI-8226 leukemia, 12.1 µM in the assay on RXF 393 renal, 16.4 µM in the assay with SF-268 CNS and 17.2 µM with SK-MEL-28 melanoma. Besides, the TGI in the assay with CAKI-1 renal stood at 35.4 µM; in the assay on CCRF-CEM leukemia, 7.79 µM; with EKVX NSCLC, 47.8 µM; in the assay with K-562 leukemia, 21.8 µM; with NCI-H460 lung, 44.7 µM; in the assay on OVCAR-8 ovarian, 55.6 µM. For the same molecule, the TGI with RPMI-8226 leukemia amounted to 83.4 µM; in the assay on RXF 393 renal, 28 µM; with SF-268 CNS it was 32.1 µM; in the assay with SK-MEL-28 melanoma it was 34.8 µM.

Consider `C=CCc1ccc(O)c(-c2ccc(O)c(CC=C)c2)c1`, for which the GI50 is 14.1 µM in the assay on CAKI-1 renal; 13100 nM with CCRF-CEM leukemia; 7.11 µM in the assay with EKVX NSCLC; 8540 nM with K-562 leukemia; 14100 nM in the assay with NCI-H460 lung; 32.8 µM in the assay on OVCAR-8 ovarian. Also, the GI50 is 14600 nM in the assay with RPMI-8226 leukemia, 18.9 µM in the assay with RXF 393 renal, 10.8 µM with SF-268 CNS and 16.6 µM in the assay on SK-MEL-28 melanoma. For the same molecule, the TGI was 29.4 µM in the assay with CAKI-1 renal; more than 100 µM in the assay with CCRF-CEM leukemia; 23.3 µM in the assay with EKVX NSCLC; more than 46.1 µM in the assay with K-562 leukemia; 35.3 µM with NCI-H460 lung; more than 60.9 µM in the assay on OVCAR-8 ovarian. The TGI is more than 55.9 µM in the assay with RPMI-8226 leukemia, 47.3 µM in the assay with RXF 393 renal, 28 µM with SF-268 CNS and 31 µM in the assay with SK-MEL-28 melanoma.

As to `O=C1CCC/C=C\C[C@H]2C=CC(=O)/C2=C/C[C@H](C/C=C\CC(F)(F)F)O1`, the GI50 with CAKI-1 renal was 0.417 µM; in the assay with CCRF-CEM leukemia, 465 nM; in the assay on EKVX NSCLC, 0.893 µM; in the assay on K-562 leukemia, 503 nM; with NCI-H460 lung it was 508 nM; in the assay on OVCAR-8 ovarian, 0.423 µM. Moreover, the GI50 is 275 nM in the assay on RPMI-8226 leukemia, 0.424 µM in the assay with RXF 393 renal, 0.522 µM with SF-268 CNS and 0.571 µM with SK-MEL-28 melanoma. For the same molecule, the TGI worked out at 1.28 µM in the assay with CAKI-1 renal; 1.71 µM in the assay with CCRF-CEM leukemia; 3.42 µM in the assay on EKVX NSCLC; 2.6 µM in the assay on K-562 leukemia; 1.73 µM in the assay on NCI-H460 lung; 1.34 µM in the assay with OVCAR-8 ovarian. The TGI was 0.858 µM in the assay with RPMI-8226 leukemia, 1.4 µM in the assay on RXF 393 renal, 2.12 µM with SF-268 CNS and 2.25 µM in the assay on SK-MEL-28 melanoma.

Regarding `COc1ccc(C2=C(c3ccc(OC)cc3)C(=O)N3CCCC3C2)cc1` (configuration not stated), the GI50 with CAKI-1 renal is 21.1 µM; with CCRF-CEM leukemia it was 5490 nM; in the assay with EKVX NSCLC, 30.2 µM; in the assay with NCI-H460 lung, 1810 nM; in the assay on OVCAR-8 ovarian, 10.4 µM; in the assay on RPMI-8226 leukemia, more than 100000 nM. Also, the GI50 with RXF 393 renal is 17.7 µM; in the assay on SF-268 CNS, 16.4 µM; in the assay on SK-MEL-28 melanoma, 54.6 µM. Moreover, the TGI in the assay on CAKI-1 renal was more than 100 µM; in the assay on CCRF-CEM leukemia, more than 48.2 µM; in the assay on EKVX NSCLC, more than 100 µM; in the assay with K-562 leukemia, more than 100 µM; in the assay on NCI-H460 lung, more than 40.9 µM; with OVCAR-8 ovarian, more than 100 µM. For the same molecule, the TGI in the assay with RPMI-8226 leukemia is more than 100 µM; in the assay with RXF 393 renal, more than 83.2 µM; in the assay on SF-268 CNS it was more than 100 µM; with SK-MEL-28 melanoma, more than 100 µM.

Turning to `CN(C)C(=S)Sc1ccc([N+](=O)[O-])cc1[N+](=O)[O-]`, the GI50 is 1.58 µM in the assay with CAKI-1 renal; 406 nM with CCRF-CEM leukemia; 5.29 µM with EKVX NSCLC; 1060 nM with K-562 leukemia; 740 nM in the assay with NCI-H460 lung; 3.27 µM in the assay with OVCAR-8 ovarian. Also, the GI50 is 1390 nM with RPMI-8226 leukemia, 3.83 µM in the assay on RXF 393 renal, 3.32 µM in the assay on SF-268 CNS and 6.75 µM in the assay with SK-MEL-28 melanoma. The TGI with CAKI-1 renal was 4.79 µM; in the assay on CCRF-CEM leukemia it was more than 43.6 µM; in the assay on EKVX NSCLC, 19.7 µM; with K-562 leukemia, 25.6 µM; in the assay on NCI-H460 lung, 4.57 µM; in the assay on OVCAR-8 ovarian, 12 µM. Also, the TGI was found to be 6.79 µM in the assay on RPMI-8226 leukemia, 8.3 µM in the assay with RXF 393 renal, 15.4 µM in the assay on SF-268 CNS and 18.4 µM in the assay on SK-MEL-28 melanoma.

On to `CCCCCCCN=C(N)c1ccc(N2CCN(c3ccc(C(N)=NCCCCCCC)cc3)CC2)cc1`, for which the GI50 in the assay with CAKI-1 renal was 0.474 µM; in the assay with CCRF-CEM leukemia, 1100 nM; in the assay on EKVX NSCLC, 0.175 µM; in the assay with K-562 leukemia, 147 nM; in the assay with OVCAR-8 ovarian, 0.376 µM; in the assay on RPMI-8226 leukemia, 785 nM. Also, the values for the GI50 in the assay with RXF 393 renal and in the assay with SK-MEL-28 melanoma were 2.46 µM and 2.08 µM, respectively. The TGI was 21.4 µM in the assay with CAKI-1 renal; more than 100 µM in the assay on CCRF-CEM leukemia; 2.94 µM in the assay on EKVX NSCLC; more than 9.41 µM in the assay on K-562 leukemia; more than 80.8 µM in the assay on NCI-H460 lung; 7.34 µM in the assay on OVCAR-8 ovarian. The TGI in the assay on RPMI-8226 leukemia is more than 100 µM; in the assay on RXF 393 renal, 6.69 µM; with SF-268 CNS it was 0.317 µM; with SK-MEL-28 melanoma, more than 22.4 µM.

Regarding `COC(=O)C1=C(C(=O)OC)C2=S(SC3=C2CCCC3)S1` (configuration not stated), the TGI with CAKI-1 renal is more than 100 µM; in the assay with CCRF-CEM leukemia it was 19.7 µM; in the assay on EKVX NSCLC, more than 100 µM; with K-562 leukemia it was 25.8 µM; with NCI-H460 lung, more than 100 µM; with OVCAR-8 ovarian, 39.8 µM. The TGI with RPMI-8226 leukemia is 30.1 µM; in the assay with RXF 393 renal it was 32.3 µM; in the assay with SF-268 CNS it was more than 100 µM; in the assay on SK-MEL-28 melanoma, more than 100 µM.

These data come from PubChem BioAssay (NCI).
